Results from ChEMBL document CHEMBL6083183, “Discovery and Hit to Lead Optimization of Macrocyclic Peptides as Novel Tropomyosin Receptor Kinase A Antagonists” (J Med Chem, 2024).
Bridge positions count the residues as written; N and C are the ends. Square brackets hold non-standard residues; d marks the D form. Peptide text beside a SMILES is read from it. NMeF = CN[C@@H](Cc1ccccc1)C(=O)O; Sar = CNCC(=O)O

Key:
[1] = Inhibition of Fc-tagged human TrkA extracellular domain to biotinylated human NGF protein-protein interaction preincubated for 1 hr followed by NGF addition and measured after 3 hrs by ELISA
[2] = Stability in rat serum assessed as half-life incubated for 22 to 24 hrs by LC-MS/MS method; assay type: ADME, cell-free; conditions: time 22-24 hrs
[3] = target: T1, High affinity nerve growth factor receptor (Homo sapiens, UniProt P04629); assay: Inhibition of human TrkA assessed as beta-galactosidase activity pretreated with NGF followed by […] and measured after 180 mins by pathhunter assay
[4] = Stability in human serum assessed as half-life incubated for 22 to 24 hrs by LC-MS/MS method; assay type: ADME, cell-free; conditions: time 22-24 hrs
[5] = target: T1, High affinity nerve growth factor receptor; assay: Binding affinity to Fc-tagged human TrkA extracellular domain by SPR method
[6] = Total clearance in Sprague-Dawley rat at 1 umol/kg, iv administered as cassette dose measured upto 6 hrs by LC-MS/MS method; assay type: ADME, organism-based; conditions: in vivo, dose 1 µmol/kg
[7] = Stability in human serum assessed as compound degradation incubated for 22 hrs by LC-MS/MS method; assay type: ADME, cell-free
[8] = AUC in Sprague-Dawley rat at 1 umol/kg, iv administered as cassette dose measured upto 6 hrs by LC-MS/MS method; assay type: ADME, organism-based; conditions: in vivo, dose 1 µmol/kg
Rattus norvegicus [9] = assay: Analgesic activity in iv dosed rat Brennan's incision pain model assessed as reduction in pain administered 3 times at every 2 hrs and measured after 6 hrs; assay type: functional, organism-based; conditions: dose 3-30 mg/kg
Rattus norvegicus [10] = assay: Analgesic activity in rat Brennan's incision pain model assessed as reduction in pain at 10 mg/kg, iv administered 3 times at every 2 hrs and measured after 6 hrs; assay type: functional, organism-based
Rattus norvegicus [11] = assay: Analgesic activity in rat Brennan's incision pain model assessed as reduction in pain at 30 mg/kg, iv administered 3 times at every 2 hrs and measured after 6 hrs; assay type: functional; parameters: scale not given: the % may be the effect or the level left
[12] = Toxicity in rat at 30 mg/kg, iv administered 3 times at every 2 hrs and measured after 6 hrs; assay type: organism-based; conditions: in vivo

T1 sequence (P04629 whole entry): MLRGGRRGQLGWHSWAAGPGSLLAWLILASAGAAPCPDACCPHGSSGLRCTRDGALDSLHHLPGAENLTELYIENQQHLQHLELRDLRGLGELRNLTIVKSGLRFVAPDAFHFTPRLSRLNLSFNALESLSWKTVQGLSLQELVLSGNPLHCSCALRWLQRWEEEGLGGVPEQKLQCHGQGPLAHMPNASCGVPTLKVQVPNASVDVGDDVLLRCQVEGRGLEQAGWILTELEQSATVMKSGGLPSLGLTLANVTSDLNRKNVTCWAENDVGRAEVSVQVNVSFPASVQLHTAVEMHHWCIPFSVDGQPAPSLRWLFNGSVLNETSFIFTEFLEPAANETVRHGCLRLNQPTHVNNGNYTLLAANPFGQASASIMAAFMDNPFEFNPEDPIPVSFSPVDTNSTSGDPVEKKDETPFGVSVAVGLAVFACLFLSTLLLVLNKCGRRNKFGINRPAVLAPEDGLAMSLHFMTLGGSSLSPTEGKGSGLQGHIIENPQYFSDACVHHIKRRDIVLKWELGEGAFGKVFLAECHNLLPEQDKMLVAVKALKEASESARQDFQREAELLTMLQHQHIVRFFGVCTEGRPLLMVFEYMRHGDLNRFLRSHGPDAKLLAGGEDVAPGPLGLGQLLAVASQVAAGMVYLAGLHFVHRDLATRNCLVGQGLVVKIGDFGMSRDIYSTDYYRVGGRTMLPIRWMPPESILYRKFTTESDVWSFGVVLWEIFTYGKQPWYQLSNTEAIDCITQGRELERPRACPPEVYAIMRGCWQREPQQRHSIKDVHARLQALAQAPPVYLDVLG

CC(C)C[C@@H]1NC(=O)[C@H](CC(N)=O)NC(=O)CNC(=O)[C@H](Cc2ccccc2)N(C)C(=O)CNC(=O)[C@H](Cc2c[nH]c3ccccc23)NC(=O)[C@H](Cc2ccc(O)cc2)NC(=O)[C@H](CO)NC(=O)[C@H](C(C)C)NC(=O)[C@H](CO)NC(=O)[C@H](CO)NC(=O)[C@H](Cc2ccccc2)NC(=O)CSC[C@@H](C(=O)NCC(N)=O)NC(=O)[C@H](Cc2c[nH]cn2)NC(=O)[C@H](CO)NC(=O)[C@H](Cc2ccc(O)cc2)NC(=O)[C@H](Cc2c[nH]c3ccccc23)NC(=O)[C@H](C(C)C)NC1=O ({CH2CO}-FSSVSYWG[NMeF]GNLVWYSHCG-NH2; thioether N-18)
IC50 [1]: 10.8 nM
half-life [2]: 47.8 h
IC50 [3]: 425 nM
half-life [4]: 9.3 h
Kd [5]: 15.9 nM

CC(C)C[C@@H]1NC(=O)[C@H](CCCNC(=N)N)NC(=O)CNC(=O)[C@H](Cc2ccccc2)N(C)C(=O)CNC(=O)[C@H](Cc2c[nH]c3ccccc23)NC(=O)[C@H](Cc2ccc(O)cc2)NC(=O)[C@H](CO)NC(=O)[C@H](C(C)C)NC(=O)[C@H](CO)NC(=O)[C@H](CCCCN)NC(=O)[C@H](Cc2ccccc2)NC(=O)CSC[C@@H](C(=O)N(C)CC(N)=O)NC(=O)[C@H](Cc2c[nH]cn2)NC(=O)[C@H](CC(N)=O)NC(=O)[C@H](Cc2ccc(O)cc2)NC(=O)[C@H](Cc2ccc(O)cc2)NC(=O)[C@H](CO)NC1=O ({CH2CO}-FKSVSYWG[NMeF]GRLSYYNHC[Sar]-NH2; thioether N-18)
half-life [2]: 11.3 h
clearance [6]: 66.2 mL/min/kg
Stability [7]: Unstable
AUC at 6 h [8]: 0.305 µM·h
IC50 [3]: 23 nM

CC(C)C[C@@H]1NC(=O)[C@H](C(C)C)NC(=O)CNC(=O)[C@H](Cc2ccccc2)N(C)C(=O)CNC(=O)[C@H](Cc2c[nH]cn2)NC(=O)[C@H](Cc2ccc(O)cc2)NC(=O)[C@H](CCC(=O)O)NC(=O)[C@H](C(C)C)NC(=O)[C@H](CO)NC(=O)[C@H](CO)NC(=O)[C@H](Cc2ccccc2)NC(=O)CSC[C@@H](C(=O)NCC(N)=O)NC(=O)[C@H](Cc2c[nH]cn2)NC(=O)[C@H](CC(=O)O)NC(=O)[C@H](Cc2ccc(O)cc2)NC(=O)[C@H](Cc2c[nH]c3ccccc23)NC(=O)[C@H](C(C)C)NC1=O ({CH2CO}-FSSVEYHG[NMeF]GVLVWYDHCG-NH2; thioether N-18)
Activity (Rattus norvegicus [9]): Dose-dependent-effect
half-life [2]: > 72 h
Activity (Rattus norvegicus [10]): Active; Activity Comparable To 1 Mg/Kg Morphine
clearance [6]: 13.9 mL/min/kg
Activity (Rattus norvegicus [11]): 40%
AUC at 6 h [8]: 1.2 µM·h
Activity [12]: Non-toxic
IC50 [3]: 21 nM
half-life [4]: > 72 h
